Data from ChEMBL document CHEMBL1201862, “PubChem BioAssay data set” (2004).
Calls of active or inactive are those of the source. Rule as the data show it, for most assays here: actives have a measured EC50 and inactives only a lower limit.

Columns and labels:
H9c2 = assay: cells; format: functional, cell-based; conditions: Rattus norvegicus, H9c2, Myocardium;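 also: confirmatory concentration-response retest of ultra-high-throughput screening hits for modulation of myocardial damage; cell death induced by hydrogen peroxide oxidative stress; compound pretreatment for 60 min then peroxide exposure for 2 h; potency is for protecting the cells against peroxide damage rather than for killing them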
[1] = Trypanosoma cruzi growth suppression in host cells – NIH3T3 host cells, beta-gal luminescence, confirmation (AID 2044); format: functional, cell-based;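 also: intracellular parasites grown in NIH/3T3 mouse fibroblasts as host cells; luminescent beta-galactosidase reporter signal from transgenic T. cruzi replicating inside host cells; inhibitors lower the luminescence signal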
[2] = alpha-synuclein stem-loop luciferase translation blockers – H4 neuroglioma cells, luminescence, confirmation (AID 1988); format: functional, cell-based
[3] = Luminescence Cell-Based Dose Response HTS to Identify Inhibitors of 5'UTR Stem-Loop Driven Prion Protein mRNA Translation in H4 Neuroglioblastoma Cells. [Related pubchem assays: 1827 (Project Summary), 1813 (Primary HTS)]; format: functional
[4] = NIH3T3 cell viability loss – ATP luminescence, mouse fibroblasts, counter-screen, dose response (AID 2010); format: functional, cell-based;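 also: cells exposed to compound for about 90 hours before reading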
[5] = NIH-3T3 fibroblast cytotoxicity, dose response, cytotoxicity control, cell-based, fluorescence, Alamar Blue, secondary assay (AID 2327); format: functional;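 also: NIH-3T3 mouse fibroblasts cultured with fluconazole at 8 µg/mL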
[6] = luciferase reporter signal suppression in cells – H4 neuroglioma cells, luminescence, dose response (AID 1990); format: functional, cell-based
[7] = target: T1, Calpain-2 catalytic subunit (Sus scrofa, UniProt P43367); assay: m-calpain protease blockers, concentration series – biochemical, fluorogenic peptide substrate, dose response (AID 1420); format: functional
T1 sequence (P43367 whole entry): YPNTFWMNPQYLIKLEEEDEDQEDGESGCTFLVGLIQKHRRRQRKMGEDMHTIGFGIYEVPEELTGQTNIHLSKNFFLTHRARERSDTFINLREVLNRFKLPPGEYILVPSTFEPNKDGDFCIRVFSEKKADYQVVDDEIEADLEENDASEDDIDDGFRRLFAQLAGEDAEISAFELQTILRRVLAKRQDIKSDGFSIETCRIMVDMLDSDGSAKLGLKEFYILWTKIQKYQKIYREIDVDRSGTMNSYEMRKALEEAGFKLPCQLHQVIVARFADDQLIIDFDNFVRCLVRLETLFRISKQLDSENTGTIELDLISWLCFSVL

Fatty acid synthase [8] = target: T2, Fatty acid synthase (Homo sapiens, UniProt P49327); assay: inhibition of human FAS-TE enzyme activity – biochemical, kinetic fluorescence intensity, dose response (AID 624326); format: functional;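 also: rate of fluorescence rise from hydrolysis of a fluorogenic O-methyl fluorescein ester substrate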
T2 sequence (P49327 whole entry): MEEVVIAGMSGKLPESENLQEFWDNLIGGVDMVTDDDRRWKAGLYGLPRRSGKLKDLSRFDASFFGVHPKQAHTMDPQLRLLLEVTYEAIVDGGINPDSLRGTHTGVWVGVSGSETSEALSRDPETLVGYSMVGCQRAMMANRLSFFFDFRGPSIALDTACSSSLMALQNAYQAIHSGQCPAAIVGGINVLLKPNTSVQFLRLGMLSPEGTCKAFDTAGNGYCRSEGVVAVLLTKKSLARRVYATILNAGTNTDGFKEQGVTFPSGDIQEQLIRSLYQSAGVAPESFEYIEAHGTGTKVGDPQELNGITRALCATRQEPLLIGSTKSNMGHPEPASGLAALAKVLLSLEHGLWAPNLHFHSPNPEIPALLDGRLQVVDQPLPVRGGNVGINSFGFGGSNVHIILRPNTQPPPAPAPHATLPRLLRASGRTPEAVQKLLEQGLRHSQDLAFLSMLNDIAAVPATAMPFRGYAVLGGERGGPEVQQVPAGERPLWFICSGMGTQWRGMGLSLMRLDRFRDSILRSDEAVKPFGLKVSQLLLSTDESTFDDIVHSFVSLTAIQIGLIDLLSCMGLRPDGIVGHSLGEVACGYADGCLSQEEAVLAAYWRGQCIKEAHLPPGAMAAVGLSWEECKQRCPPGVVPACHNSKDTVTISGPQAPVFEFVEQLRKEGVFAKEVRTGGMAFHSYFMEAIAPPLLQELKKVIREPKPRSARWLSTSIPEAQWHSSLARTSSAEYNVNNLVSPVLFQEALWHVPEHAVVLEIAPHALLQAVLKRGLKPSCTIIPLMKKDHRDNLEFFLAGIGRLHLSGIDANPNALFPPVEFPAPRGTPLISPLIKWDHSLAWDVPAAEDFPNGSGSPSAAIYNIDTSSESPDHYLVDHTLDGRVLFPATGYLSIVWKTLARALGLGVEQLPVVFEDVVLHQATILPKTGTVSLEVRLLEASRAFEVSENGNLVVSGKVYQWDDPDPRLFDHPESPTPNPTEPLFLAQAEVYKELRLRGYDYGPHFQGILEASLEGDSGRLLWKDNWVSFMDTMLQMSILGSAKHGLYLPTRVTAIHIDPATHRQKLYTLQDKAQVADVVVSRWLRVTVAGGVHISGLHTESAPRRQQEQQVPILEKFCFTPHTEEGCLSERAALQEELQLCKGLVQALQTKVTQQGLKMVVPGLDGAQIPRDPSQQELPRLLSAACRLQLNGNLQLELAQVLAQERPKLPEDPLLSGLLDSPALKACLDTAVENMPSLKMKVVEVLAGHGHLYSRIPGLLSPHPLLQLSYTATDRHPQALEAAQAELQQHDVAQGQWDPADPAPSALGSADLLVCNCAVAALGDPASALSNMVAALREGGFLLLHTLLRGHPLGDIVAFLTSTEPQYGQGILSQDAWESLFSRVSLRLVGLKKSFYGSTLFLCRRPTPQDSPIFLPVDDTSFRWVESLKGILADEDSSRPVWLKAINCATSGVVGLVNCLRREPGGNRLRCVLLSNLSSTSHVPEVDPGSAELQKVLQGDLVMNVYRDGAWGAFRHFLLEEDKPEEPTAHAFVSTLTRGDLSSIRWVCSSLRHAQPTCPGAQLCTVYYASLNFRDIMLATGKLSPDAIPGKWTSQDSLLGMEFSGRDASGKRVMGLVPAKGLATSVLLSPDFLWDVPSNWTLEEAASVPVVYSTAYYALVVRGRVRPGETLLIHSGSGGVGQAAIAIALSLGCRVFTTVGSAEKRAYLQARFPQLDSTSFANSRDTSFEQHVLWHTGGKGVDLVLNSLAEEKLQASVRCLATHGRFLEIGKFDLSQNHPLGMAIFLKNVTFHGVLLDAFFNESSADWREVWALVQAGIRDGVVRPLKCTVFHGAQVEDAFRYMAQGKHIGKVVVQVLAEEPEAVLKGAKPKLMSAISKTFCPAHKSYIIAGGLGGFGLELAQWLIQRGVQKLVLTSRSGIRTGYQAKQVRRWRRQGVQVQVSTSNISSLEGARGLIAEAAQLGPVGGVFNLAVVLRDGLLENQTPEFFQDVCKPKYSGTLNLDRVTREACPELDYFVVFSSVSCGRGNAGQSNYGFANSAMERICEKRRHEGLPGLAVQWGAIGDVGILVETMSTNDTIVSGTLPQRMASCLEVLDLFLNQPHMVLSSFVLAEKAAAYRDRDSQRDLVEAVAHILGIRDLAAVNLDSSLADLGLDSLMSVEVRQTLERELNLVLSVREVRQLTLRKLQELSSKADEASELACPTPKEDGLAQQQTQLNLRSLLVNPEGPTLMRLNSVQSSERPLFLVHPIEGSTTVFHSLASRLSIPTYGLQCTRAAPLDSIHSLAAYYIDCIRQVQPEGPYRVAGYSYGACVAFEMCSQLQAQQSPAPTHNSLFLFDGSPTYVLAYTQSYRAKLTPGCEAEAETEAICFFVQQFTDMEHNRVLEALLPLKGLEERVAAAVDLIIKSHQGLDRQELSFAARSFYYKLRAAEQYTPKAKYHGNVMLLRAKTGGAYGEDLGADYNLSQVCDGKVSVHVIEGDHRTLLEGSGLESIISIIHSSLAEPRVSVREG

Fatty acid synthase [9] = target: T2, Fatty acid synthase; assay: inhibition of human FAS-TE enzyme activity – biochemical, endpoint fluorescence intensity, uHTS hits, dose response (AID 624327); format: functional;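 also: fluorescence from hydrolysis of an O-methyl fluorescein acyl ester substrate by the enzyme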
BJ [10] = assay: BJ-TERT fibroblast viability loss – cell-based, RAS-independent, luminescence, dose response (AID 1933); format: functional; conditions: Homo sapiens
BJ [11] = assay: cells; format: functional, cell-based; conditions: Homo sapiens
[12] = DRD fibroblast viability loss – cell-based, non-viral oncogenic, luminescence, dose response (AID 1934); format: functional; conditions: Homo sapiens
BJ [13] = assay: BJ-TERT-LT-ST fibroblast viability loss – cell-based, RAS-independent, luminescence, dose response (AID 1935); format: functional; conditions: Homo sapiens;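 also: BJ fibroblasts immortalized with TERT plus LT and ST oncogenes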
[14] = target: T3, Zinc finger protein mex-5 (Caenorhabditis elegans, UniProt Q9XUB2); assay: potency of MEX-5 RNA-binding blockers – biochemical, C. elegans, fluorescence polarization, dose response (AID 1960)
T3 sequence (Q9XUB2 whole entry): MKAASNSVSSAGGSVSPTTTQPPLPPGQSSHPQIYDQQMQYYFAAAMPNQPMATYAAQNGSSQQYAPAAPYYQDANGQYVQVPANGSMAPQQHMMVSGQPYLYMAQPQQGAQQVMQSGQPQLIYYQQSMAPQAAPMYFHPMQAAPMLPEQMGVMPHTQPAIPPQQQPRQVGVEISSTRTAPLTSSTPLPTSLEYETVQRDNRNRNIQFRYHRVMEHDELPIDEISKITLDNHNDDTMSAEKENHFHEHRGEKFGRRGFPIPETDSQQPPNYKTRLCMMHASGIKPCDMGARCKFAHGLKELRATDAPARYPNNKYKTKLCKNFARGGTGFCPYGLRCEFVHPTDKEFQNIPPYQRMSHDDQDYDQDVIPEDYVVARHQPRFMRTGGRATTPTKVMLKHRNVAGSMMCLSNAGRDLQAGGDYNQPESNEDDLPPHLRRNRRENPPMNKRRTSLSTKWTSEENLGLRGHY

[15] = target: T4, RNA-binding protein pos-1 (Caenorhabditis elegans, UniProt G5EF15); assay: disruptors of C. elegans POS-1 RNA interaction – biochemical, fluorescence polarization, dose response (AID 1964);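 also: purified POS-1 fused to maltose binding protein made in E. coli; potency of compounds blocking POS-1 binding to fluorescent RNA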
T4 sequence (G5EF15 whole entry): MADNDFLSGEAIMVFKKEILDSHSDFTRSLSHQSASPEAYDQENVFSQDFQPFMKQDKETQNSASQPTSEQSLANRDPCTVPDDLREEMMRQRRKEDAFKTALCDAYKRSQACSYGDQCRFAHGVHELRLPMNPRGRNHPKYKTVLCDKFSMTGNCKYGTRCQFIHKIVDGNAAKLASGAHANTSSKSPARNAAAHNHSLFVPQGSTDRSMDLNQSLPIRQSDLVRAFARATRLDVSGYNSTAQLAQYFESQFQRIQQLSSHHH

[16] = target: T5, Corticotropin-releasing factor receptor 2/Corticotropin-releasing factor-binding protein (Homo sapiens, UniProt P24387+Q13324); assay: Dose Response confirmation of uHTS hits for small molecule antagonists of the CRF-binding protein and CRF-R2 receptor complex.; format: functional; conditions: read-out: IC50_Mean
T5 sequence (Q13324 whole entry): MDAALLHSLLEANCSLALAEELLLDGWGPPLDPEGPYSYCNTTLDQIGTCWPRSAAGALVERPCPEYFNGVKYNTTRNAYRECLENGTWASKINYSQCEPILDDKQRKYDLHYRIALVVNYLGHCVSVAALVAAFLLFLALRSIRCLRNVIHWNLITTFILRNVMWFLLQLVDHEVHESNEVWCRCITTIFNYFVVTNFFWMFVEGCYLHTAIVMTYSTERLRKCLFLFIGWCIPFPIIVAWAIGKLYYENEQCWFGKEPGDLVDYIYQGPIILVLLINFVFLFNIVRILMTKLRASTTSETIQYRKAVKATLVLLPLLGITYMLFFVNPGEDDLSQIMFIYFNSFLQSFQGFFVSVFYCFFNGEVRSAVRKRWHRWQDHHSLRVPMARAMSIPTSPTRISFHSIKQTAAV
T5 sequence (P24387 whole entry): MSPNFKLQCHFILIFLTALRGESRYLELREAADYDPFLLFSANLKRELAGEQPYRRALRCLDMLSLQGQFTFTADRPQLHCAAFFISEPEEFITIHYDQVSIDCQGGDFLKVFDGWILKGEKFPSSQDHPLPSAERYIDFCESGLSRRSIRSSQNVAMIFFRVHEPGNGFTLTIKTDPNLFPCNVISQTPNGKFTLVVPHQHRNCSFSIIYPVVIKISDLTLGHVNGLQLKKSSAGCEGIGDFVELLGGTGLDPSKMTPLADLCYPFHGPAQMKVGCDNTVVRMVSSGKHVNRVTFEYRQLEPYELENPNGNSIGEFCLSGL

[17] = target: T5, Corticotropin-releasing factor receptor 2/Corticotropin-releasing factor-binding protein; assay: activators of CRF receptor 2 with binding protein – uHTS hits, confirmation (AID 602473); format: functional; conditions: read-out: EC50_Mean

In the case of `Cc1ccc(-c2nnc(O)c3ccccc23)cc1S(N)(=O)=O`, the IC50 (H9c2) is reported as 21.8 µM (active).

For `Nc1c(S(=O)(=O)c2cccc(Cl)c2)c2nc3ccccc3nc2n1/N=C/c1ccc(O)c(O)c1`, the EC50 [1] was 3.16 µM (active), the EC50 [2] was 9.66 µM (active) and the EC50 [3] was 12.5 µM (active). For the same compound, the EC50 [4] was 6.98 µM (active), the EC50 [5] was > 160 µM (inconclusive) and the EC50 [6] was 11.4 µM (active).

For `c1ccc(Oc2nc(Oc3ccccc3)nc(N3CCOCC3)n2)cc1`, the IC50 [7] was < 0.4 µM (not active).

In the case of `COc1ccc(-n2c(=S)[nH]c3cc(C(=O)Nc4ccc(OC)c(OC)c4)ccc3c2=O)cc1`, the IC50 [7] is reported as 22.5 µM (not active).

In the case of `COc1ccc2[nH]c3c(c2c1)CCN1C(=O)C(CC(=O)NCCC2=CCCCC2)C[C@H](C(=O)N2CCOCC2)[C@@]31CCC1CCCC1` (some centres undefined), the IC50 (Fatty acid synthase [8]) is reported as 80 µM (inactive) and the IC50 (Fatty acid synthase [9]) is reported as 44.9 µM (inactive).

With `Cc1ccc(C(=O)NNC(=O)c2ccc3ncccc3c2)cc1` the IC50 [7] was 9.29 µM (not active).

With `O=C(CSc1nc(O)c2ccccc2n1)c1ccc(O)cc1O` the IC50 (H9c2) was > 79 µM (inactive).

For `O=C(CCN1C(=O)/C(=C/c2ccc3c(c2)OCO3)SC1=S)Nc1ccccc1`, the IC50 [7] was 24.8 µM (not active).

With `O=C(Nc1ccccc1)c1nc[nH]c1C(=O)NCCNC(=O)c1[nH]cnc1C(=O)Nc1ccccc1` the IC50 (H9c2) was > 79 µM (inactive).

For `C=CCOC(=O)COc1ccc2c3c(c(=O)oc2c1)CCCC3`, the IC50 (H9c2) was 14.5 µM (active).

With `Cc1c(C(=O)c2ccc(Cl)c([N+](=O)[O-])c2)c2ccccn2c1CCC#N` the EC50 (BJ [10]) was > 150 µM (not active), the EC50 (BJ [11]) was > 150 µM (not active) and the EC50 [12] was > 150 µM (not active). The EC50 (BJ [13]) was > 150 µM (inconclusive).

With `O=c1[nH]c(CSc2ncccn2)nc2c1cnn2-c1ccccc1` the EC50 [14] was > 300 µM (not active) and the EC50 [15] was 166 µM (inconclusive).

With `CCOc1ccccc1N1CCN(C(=O)CNC(=O)c2ccccc2F)CC1` the EC50 [14] was > 300 µM (not active) and the EC50 [15] was > 300 µM (not active).

With `COCCn1cnc2c(c1=O)c1nc3ccccc3nc1n2/N=C/c1cccc(OC)c1` the IC50 [16] was > 47.1 µM (inactive), the IC50 (H9c2) was 24.5 µM (active) and the EC50 [17] was > 53 µM (inactive).

For `CC(C)(C)c1ccc(OCCC(=O)OCC(=O)NC2CCCCC2)cc1`, the IC50 (Fatty acid synthase [8]) was 5.35 µM (active) and the IC50 (Fatty acid synthase [9]) was 8.28 µM (active).

For `COC(=O)N/N=C/c1cn(Cc2ccc(F)cc2)c2ccccc12`, the EC50 [2] was 7.94 µM (active), the EC50 [3] was 12.8 µM (active) and the EC50 [6] was 9.2 µM (active).

In the case of `COc1cc2c(cc1OC)CN(C(=O)c1cc(=O)c3ccccc3o1)CC2`, the EC50 (BJ [10]) is reported as 18.6 µM (active), the EC50 (BJ [11]) is reported as 43.3 µM (active) and the EC50 [12] is reported as 14.1 µM (active). For the same compound, the EC50 (BJ [13]) was > 150 µM (inconclusive).

For `O=C(COc1ccc2c3c(c(=O)oc2c1)CCC3)N1CCN(c2ccccc2)CC1`, the IC50 (Fatty acid synthase [8]) was 8.68 µM (active) and the IC50 (Fatty acid synthase [9]) was 12.2 µM (active).

In the case of `O=C(CNC(=O)c1[nH]cnc1C(=O)NC(c1ccccc1)c1ccccc1)OCc1ccccc1`, the IC50 (H9c2) is reported as > 79 µM (inactive).
